System: differentiated C2C12 skeletal muscle cells
Experiment: 3H-deoxyglucose uptake in C2C12 myotubes
Type: cell-based, murine
Settings: 18 h
Description: 2.3 ^3H-deoxyglucose uptake in C2C12 myotubes: Cell culture and the ^3H-deoxyglucose uptake assay were performed as previously described [34B, 35B, 37B]. Briefly, C2C12 murine skeletal myoblasts (American Type Culture Collection; Manassas, Va.) were cultured under standard conditions in 12-well plates. Cells were proliferated to 80% confluence in high-glucose Dulbecco's modified Eagle's medium (DMEM; Wisent; St-Bruno, QC) supplemented with 10% fetal bovine serum (FBS; Wisent), 10% horse serum (HS), and antibiotics. Differentiation into multinucleated myotubes was then promoted with DMEM supplemented with 2% HS and antibiotics. All uptake assays were performed on 7-day differentiated cells, and treatments were timed accordingly. […] DMSO concentration was fixed at 0.1% for all conditions. Cells were routinely inspected for abnormal morphology by phase-contrast microscopy at the conclusion of the treatment period. […] Cells were then washed twice in glucose-free KPB at 37° C. before incubation for exactly 10 min at 37° C. in glucose-free KPB containing 0.5 μCi/ml 2-deoxy-D-[1-^3H]glucose (Amersham Biosciences; Buckinghamshire, UK). Cells were then placed on ice and immediately washed three times with ice-cold KPB. Cells were inspected for monolayer detachment and lysed in 0.1 N NaOH with scraping. […] Three independent experiments of 18 h treatment duration were performed for each of the selected test compounds, with three replicates per condition per experiment. Vehicle-control and 50 μM 2,4-dinitrophenol conditions were included on every plate. Some compounds were also tested at 50 μM under the following conditions: a 15 h treatment with vehicle only followed by a 3 h treatment with the test compound; a 15 h treatment with the test compound followed by a 3 h repeat treatment.
Protocol for ^3H-deoxyglucose uptake assay in C2C12 or other skeletal muscle cells; C2C12 murine skeletal myoblasts (American Type Culture Collection; Manassas, Va.) may be cultured under standard conditions in 12-well plates. Cells may be proliferated to 80% confluence in high-glucose Dulbecco's modified Eagle's medium (DMEM) supplemented with 10% fetal bovine serum (FBS), 10% horse serum (HS), and antibiotics. Differentiation into multinucleated myotubes may be then promoted with DMEM supplemented with 2% HS and antibiotics. All uptake assays may be performed on 7-day differentiated cells, and treatment onset may be timed accordingly. Cells may be treated with reference substances (such as metformin (100 or 400 μM), phenformin (100 μM), or 2,4-dinitrophenol 10-100 μM), compounds described herein, or vehicle (DMSO) in complete differentiation medium. DMSO concentration may be fixed at 0.1% for all conditions. Cells may be routinely inspected for abnormal morphology by phase-contrast microscopy at the conclusion of the treatment period. […] Cells may be then washed twice in glucose-free KPB at 37° C. before incubation for exactly 10 min at 37° C. in glucose-free KPB containing 0.5 μCi/ml 2-deoxy-D-[1-3H]glucose (Amersham Biosciences; Buckinghamshire, UK). Cells may be then placed on ice and immediately washed three times with ice-cold KPB. Cells may be inspected for monolayer detachment and lysed in 0.1 N NaOH with scraping. […] Three or more independent experiments of 18 hours treatment duration may be performed for each test compound, with three or more replicates per condition per experiment. Vehicle-control and 2,4-dinitrophenol conditions may be included on every plate for the purpose of standardizing.

O=[N+]([O-])c1ccc(O)c([N+](=O)[O-])c1 [2,4-dinitrophenol]
increase in basal glucose uptake (25 μM): 66%
increase in basal glucose uptake (50 μM): 119%
increase in basal glucose uptake (100 μM): 169%
